# Laboratory results as given in US20020146823A1, “Method for promoting hematopoietic and mesenchymal cell proliferation and differentiation” (The University of Southern California, priority 1997, published 2002).
# Assays:
# [1] = test system: Murine Peritoneal Macrophages; assay: Phagocytic capability of murine peritoneal macrophages (opsonized yeast ingestion); assay type: cell-based, C57B1/6 mice
# Protocol: Resident peritoneal macrophages have very little phagocytic activity. Exposure of macrophages to inflammatory or activating agents will increase this macrophage function. Resident peritoneal macrophages were harvested from C57B1/6 mice or Sprague Dawley rats and resuspended at a concentration of 1×10^6 cells/ml in phosphate buffered saline (PBS). Five separate 0.5 ml cell aliquots were placed on a glass coverslip in a 35 mm petri dish. Prior to incubation, either 0.5 ml of PBS, AII, or AII analogues or fragments at between 1-1000 ug/ml final concentration was added to the individual cover slips. The dishes containing the cover slips were then incubated at 37° C. for 4 hours, after which the cover slips were washed 3 to 6 times with PBS. Opsonized yeast particles (Sigma Chemical Co.) (yeast opsonized with adult serum from the same species as that under study) were added to the cover slips and incubated for 2 hours, after which the cover slips were again washed with PBS and inverted onto a glass slide. The number of macrophages that ingested yeast and the number of yeast per macrophage ingested was then determined microscopically. At least 100 macrophages per coverslip were counted. The data from this study are summarized in Tables 3 and 4 and FIGS. 1 and 2.
# [2] = test system: enriched HPC from C57B1/6 mice; assay: Murine HPC colony formation in semi-solid culture; assay type: cell-based
# Protocol: HPC were harvested from C57B1/6 mice by immunomagnetic affinity chromatography and placed in semi-solid cultures with optimal growth medium. At various times after initiation of culture, the formation of colonies and the size of the colonies (number of cells/colony) were assessed microscopically.
# Female C57B1/6 mice were purchased from Simonson and used as a source of bone marrow cells in this study. The bone marrow was harvested, either from untreated mice or from mice injected with 5-fluorouracil (5-FU) (3 mg/mouse; approximately 150 mg/kg) in the tail vein 48 hours before harvest, from the femur and tibia of mice by flushing with phosphate buffered saline (PBS), pH 7.4, containing 2% fetal bovine serum (FBS) with a 21-gauge needle. The eluant from the flushing was centrifuged and the pellet was resuspended at 4×10^7 nucleated cells/ml in PBS containing PBS containing 2% FBS and 5% normal rat serum.
# The reagents for immunomagnetic labeling were purchased from Stem Cell Technologies, Inc. (Vancouver, BC). […]
# AT2 receptor = target: T1, AT2 receptor (Homo sapiens, UniProt P50052); settings: cited from earlier work
# T1 sequence (P50052 1-363): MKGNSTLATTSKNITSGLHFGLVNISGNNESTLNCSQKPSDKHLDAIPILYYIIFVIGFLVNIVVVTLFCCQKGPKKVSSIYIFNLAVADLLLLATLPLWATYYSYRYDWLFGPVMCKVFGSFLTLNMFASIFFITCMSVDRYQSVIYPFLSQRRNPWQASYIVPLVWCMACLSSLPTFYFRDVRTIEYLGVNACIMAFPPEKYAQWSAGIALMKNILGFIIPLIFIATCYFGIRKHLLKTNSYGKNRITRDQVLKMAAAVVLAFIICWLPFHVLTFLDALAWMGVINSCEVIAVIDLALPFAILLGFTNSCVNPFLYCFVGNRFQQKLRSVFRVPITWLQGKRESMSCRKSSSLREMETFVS
substance,measurement,setting,value
"Asp-Arg-Val-Tyr-Ile-His-Pro-Phe (DRVYIHPF; printed: Asp-Arg-Val-Tyr-Ile-His-Pro-Phe) [AII, octapeptide present in humans and other species; known pressor agent, commercially available]","# Macrophages with Yeast, Yeast # 0",[1]; AII 10 μg/ml,100
same,"# Macrophages with Yeast, Yeast # 7-9",[1]; AII 10 μg/ml,0
same,"# Macrophages with Yeast, Yeast # 0",[1]; AII 100 μg/ml,100
same,"# Macrophages with Yeast, Yeast # 7-9",[1]; AII 100 μg/ml,0
same,% Ingesting,[1]; AII 100 μg/ml,16.7%
same,"# Macrophages with Yeast, Yeast # 0",[1]; AII 1000 μg/ml,100
same,"# Macrophages with Yeast, Yeast # 7-9",[1]; AII 1000 μg/ml,0
same,% Ingesting,[1]; AII 1000 μg/ml,25.6%
same,phagocytic capability of peritoneal macrophages,[1]; exposure to 10 μg/ml or greater,tremendously increased
same,% phagocytic,[1]; highest concentration,over 25%
same,"yeast observed per macrophage, on average",[1]; highest concentration,~1
same,increase in the number of macrophages able to phagocytose,[1]; highest concentration vs resident population,25 fold
same,HPC colony size,"[2]; 0 to 100 μg/ml, normal and 5-FU treated",increases proportionately with exposure to increased concentrations of AII
same,macroscopic colonies,"[2]; day 14, enriched HPC from untreated (normal) mice, 100 μg/ml",100
same,affinity for AT2 relative to AT1,AT2 receptor,100 times
